Data on two molecules can be found in patent US9125904B1, “Biphenyl imidazoles and related compounds useful for treating HCV infections” (ACHILLION PHARMACEUTICALS, INC., priority 2010, dated 2015).

The test system of the assay is HCV replicon. The experiment in a line: HCV replicon replication assay (NPT ELISA). It counts as cell-based. Conditions: Hepatitis C virus, 72 h; Huh-7 HCV replicon-containing cells, three days; class symbols; read-out: EC50. The protocol:
Compounds claimed herein are tested for the ability to inhibit viral replication of the Hepatitis C replicon in cultured cells in which the HCV replicon construct has been incorporated. The HCV replicon system was described by Bartenschlager, et. al (Science, 285, pp. 110-113 (1999)). The replicon system is predictive of in vivo anti-HCV activity; compounds that are active in humans uniformly evidence activity in the replicon assay.
In this assay HCV replicon containing cells are treated with different concentrations of the test compound to ascertain the ability of the test compound to suppress replication of the HCV replicon. As a positive control, HCV replicon-containing cells are treated with different concentrations of interferon alpha, a known inhibitor of HCV replication. The replicon assay system includes Neomycin Phosphotransferase (NPT) as a component of the replicon itself in order to detect the transcription of replicon gene products in the host cell. Cells in which the HCV replicon is actively replicating have high levels of NPT; the level of NPT is proportional to HCV replication. […] The NPT level of each sample is measured using a captured ELISA.
A protocol for testing compounds for the ability to inhibit viral replication of the Hepatitis C replicon cultured cells in which the replicon construct has been incorporated, follows.
The HCV replicon contains, 5′-3′, the HCV-IRES, the neomycin phosphotransferase (neo) gene, the IRES of encephalomyocarditis virus, which directs translation of HCV sequences NS3 to NS5B, and the 3′-NTR. The sequence of the HCV replicon has been deposited in GenBank (Accession no. AJ242652).
The replicon is transfected into Huh-7 cells using standard methods such as electroporation.
The equipment and materials include, but are not limited to, Huh-7 HCV replicon-containing cells, maintenance media (DMEM (Dulbecco's modified Eagle media) supplemented with 10% FBS, L-glutamine, non-essential amino acids, penicillin (100 units/ml), streptomycin (100 micrograms/ml), and 500 micrograms/ml of Geneticin (G418), screening media (DMEM supplemented with 10% FBS, L-glutamine, non-essential amino acids, penicillin (100 units/ml) and streptomycin (100 micrograms/ml)), 96 well tissue culture plates (flat bottom), 96 well plates (U bottom for drug dilution), Interferon alpha for positive control, fixation reagent (such as methanol: acetone), primary antibody (rabbit anti-NPTII), secondary antibody: Eu-N1 1, and enhancement solution.
HCV replicon-containing cells support high levels of viral RNA replicon replication when their density is suitable. Over-confluency causes decreased viral RNA replication. Therefore, cells must be kept growing in log phase in the presence of 500 micrograms/ml of G418. Generally, cells should be passed twice a week at 1: 4-6 dilution. Cell maintenance is conducted as follows:
HCV replicon-containing cells are examined under a microscope to ensure that cells growing well. Cells are rinsed once with PBS and 2 ml trypsin is added. The cell/trypsin mixture is incubated at 37° C. in a CO2 incubator for 3-5 minutes. After incubation 10 ml of complete media is added to stop the trypsinization reaction. Cells are blown gently, put into a 15 ml tube, and spun at 1200 rpm for 4 minutes. The trypsin/medium solution is removed. Medium (5 ml) is added and the cells are mixed carefully. The cells are counted.
The cells are then seeded onto 96-well plates at a density of 6000-7500 cells/100 microliters/well (6−7.5×10^5 cells/10 ml/plate). The plates are then incubated at 37° C. in a 5% CO2 incubator.
Cells are examined under a microscope approximated 24 hours after seeding and prior to adding drugs. If counting and dilution were performed correctly, cells are 60-70% confluent and nearly all cells should attach and spread evenly in the well.
HCV replicon-containing cells are rinsed with once PBS once; 2 mls of trypsin are then added. Cells are incubated at 37° C. in a 5% CO2 incubator for 3-5 minutes. […]

`CCCS(=O)(=O)N1CCN(Cc2ccc(NC(=O)c3ccc(-c4ccc(-c5c[nH]c([C@@H]6CCCN6C(=O)[C@@H](NC(=O)OC)C(C)C)n5)cc4)cc3)cc2)CC1` [Compound 19, methyl (S)-3-methyl-1-oxo-1-((S)-2-(4-(4′-(4-((4-(propylsulfonyl)piperazin-1-yl)methyl)phenylcarbamoyl)biphenyl-4-yl)-1H-imidazol-2-yl)pyrrolidin-1-yl)butan-2-ylcarbamate]: the EC50 was below 0.05 µM.

Turning to `CNC(=O)C[C@H](C(=O)N1CCC[C@H]1c1ncc(-c2ccc(-c3cnc([C@@H]4CCCN4C(=O)[C@@H](CC(=O)NC)C(C)(C)C)[nH]3)cc2)[nH]1)C(C)(C)C` [Compound 23, (3S,3′S)-3,3′-(2S,2′S)-2,2′-(5,5′-(1,4-phenylene)bis(1H-imidazole-5,2-diyl))bis(pyrrolidine-2,1-diyl)bis(oxomethylene)bis(N,4,4-trimethylpentanamide)], the EC50 is below 0.05 µM.
